Assay results as given in the supplement of paper PMC10290057.
Structures can show the parent of a compound that is named as a salt.

How the values were obtained:
[1] = test system: HCT116; test: efficacy (fitted maximal change in viability relative to DMSO control); higher = less cytotoxic (negative = loss of viability); details: 48 h
[2] = test system: HCT116; test: AC50 cell viability (CellTiter-Glo); higher = less potent; details: 48 h
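For AC50 cell viability (CellTiter-Glo) in this document: HCT116 colorectal carcinoma cells screened at five concentrations per compound, luminescent viability scaled between DMSO wells and empty wells on each plate, curves fitted per compound.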
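For efficacy (fitted maximal change in viability relative to DMSO control) in this document: Luminescence-based viability readout, five doses per compound, normalized against on-plate DMSO and empty-well controls, followed by dose-response curve fitting for every drug.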

Compound | efficacy [1] [%] | AC50 cell viability [2] [µM]
CN(C)C[C@@H]1CC[N]2C=C(C3=C2C=CC=C3)C/4=C(/C(=O)NC4=O)C5=C[N](CCO1)C6=C5C=CC=C6 [Ruboxistaurin mesylate] | -102 | 8.33
CNCc1ccc(-c2[nH]c3cc(F)cc4c3c2CCNC4=O)cc1 [Rucaparib] | -101 | 18.6
N#CC[C@H](C1CCCC1)n1cc(-c2ncnc3[nH]ccc23)cn1 [Ruxolitinib] | -67.4 | 11.8
CNC1CCC(N(Cc2cccc(-c3ccncc3)c2)C(=O)c2sc3ccccc3c2Cl)CC1 (stereo unspecified) [SAG] | -98.5 | 16.6
CCOc1cc(C(=O)Nc2ccc(Cl)c(-c3nc4ccccc4[nH]3)c2)cc(OCC)c1OCC [SANT-2] | -37.4 | 2.63
CN1C/C=C/CCOc2cccc(c2)-c2ccnc(n2)Nc2cccc(c2)C1 [SB-1317] | -70.2 | 0.059
O=C1\C=C(OC2=C1SC=C2C3=CC=C4OCCOC4=C3)\N5CCOCC5 [SF-2523] | -69.9 | 3.72
CC(C)N(CCCNC(=O)Nc1ccc(C(C)(C)C)cc1)C[C@H]1O[C@@H](n2cc(Br)c3c(N)ncnc32)[C@H](O)[C@@H]1O [SGC-0946] | -95.9 | 20.9
CN1CCC(CNc2ccc3ncc(-c4cccc(OC(F)(F)F)c4)n3n2)CC1 [SGI-1776] | -102 | 6.61
Cc1c[nH]c2nc(Nc3ccc(N4CCN(C)CC4)c(F)c3)nc(-c3cccc(CC#N)c3)c12 [SGI-7079] | -83.9 | 0.525
N#C/C(=C(/N)Sc1ccc(N)cc1)c1ccccc1C(F)(F)F [SL-327] | -80.4 | 13.2
CN[C@@H](C)C(=O)N[C@H]1CCCC[C@H]2CC[C@@H](C(=O)N[C@@H](c3ccccc3)c3cn(CCCCc4ccc(CCCCn5cc([C@@H](NC(=O)[C@@H]6CC[C@@H]7CCCC[C@H](NC(=O)[C@H](C)NC)C(=O)N76)c6ccccc6)nn5)cc4)nn3)N2C1=O [SM-164] | -89.2 | 23.5
CCC1=C2CN3C(=O)\C4=C(/C=C3/C2=NC5=CC=C(O)C=C15)[C@@](O)(CC)C(=O)OC4 [SN-38] | -79.2 | 0.0661
O=C(Nc1cccc(Cl)c1)Nc1ncc(CCNc2ncnc3ccsc23)s1 [SNS-314] | -91.8 | 18.6
C/C(=N\NC(=O)c1cccc([S+](=O)([O-])N2CCOCC2)c1)c1cc(Cl)ccc1O [SP2509] | -69.5 | 1.86
C/C(NNC(=O)c1cccc([S+](=O)([O-])N2CCOCC2)c1)=C1\C=C(Cl)C=CC1=O [SP-2509] | -72 | 2.63
COC1=CC=CC2=C1C(=NC(=N2)C3=CC=CS3)NN4C(=O)\C=C(C)/C4=O [SPC-839] | -91.1 | 0.525
OC(c1ccc(-c2ccc(CN3CCN(Cc4ccncc4)CC3)cc2)c(F)c1)(C(F)(F)F)C(F)(F)F [SR-2211] | -44.3 | 10.5
Cc1ccc(-c2ncn(-c3ccc(Nc4nccc(-c5cccc(N6CCOCC6)c5)n4)cc3)n2)cn1 [SR-3306] | -85.8 | 1.48
CCCCCNC(=O)N1CCC(CN(Cc2ccc(Cl)cc2)Cc2ccc([N+](=O)[O-])s2)C1 (stereo unspecified) [SR-9011] | -71 | 20.9
O=C(Nc1ccccc1-c1cn2c(CN3CCNCC3)csc2n1)c1cnc2ccccc2n1 [SRT-1720] | -83.6 | 7.42
NC(=O)[C@H]1CCS[C@@H]2C[C@]3(CCCN3C(=O)Cc3ccc(NC(=O)COc4ccc(Cl)cc4Cl)cc3)C(=O)N12 [ST-2825] | -68.6 | 10.5
O=C(Nc1nnc(-c2ccco2)o1)c1cc(-c2ccccc2)nc2ccccc12 [STX-0119] | -69.9 | 14.8
CN(C)[S+](=O)([O-])c1ccc2c(c1)C(=Cc1cc3c([nH]1)CCCC3)C(=O)N2 [SU-6656] | -34.2 | 0.118
Cc1[nH]c(/C=C2\C(=O)Nc3ccc([S+](=O)([O-])N(C)c4cccc(Cl)c4)cc32)c(C)c1C(=O)N1CCN(C)CC1 [SU-MI-2] | -113 | 14.8
CCC(C1CCC(C)C(O1)C(C)C(O)C(C)C(=O)C(CC)C2OC\3(O[C@]4(CC[C@@](C)(O4)C5CC[C@@](O)(CC)C(C)O5)C(O)\C=C3)C(C)CC2C)C([O-])=O (stereo partly specified) [Salinomycin] | -98.3 | 13.2
CN1CCN(CCOc2cc(OC3CCOCC3)c3c(Nc4c(Cl)ccc5c4OCO5)ncnc3c2)CC1 [Saracatinib] | -101 | 18.6
[O-][n+]1cccc(-c2nc3c(Cl)cccc3cc2[C@@H](Nc2ncnc3cccnc23)C(F)(F)F)c1 [Seletalisib] | -49.3 | 18.6
